Paper PMC7488365 (Acta Pharmaceutica Sinica. B, 2019)

Tests used:
MKN45 cells = assay: cells; settings: Homo sapiens, MKN-45, 72 h, read-out: IC50 cell viability MKN45
HGC-27 cells [1] = assay: Annexin V-FITC/PI apoptosis analysis; format: cell-based, human
HGC-27 cells [2] = assay: Transwell migration assay, HGC-27; format: cell-based, human; settings: HGC-27, 48 h
MGC-803 cells [3] = assay: cells; settings: Homo sapiens, MGC-803, 72 h, read-out: IC50 cell viability MGC-803
[4] = tested on: USP28, LSD1 and total c-Myc in HGC-27 cells; assay: Western blotting of USP28, LSD1 and total c-Myc; format: cell-based, human; settings: HGC-27, 3 h, Western blotting
USP28 in HGC-27 cells = target: T1, USP28 in HGC-27 cells (Homo sapiens, UniProt Q96RU2); assay: Cellular thermal shift target engagement assay, HGC-27; format: cell-based; settings: HGC-27, 0.75 μmol/L, 3 h, 60 °C
T1 sequence (Q96RU2 1-1077): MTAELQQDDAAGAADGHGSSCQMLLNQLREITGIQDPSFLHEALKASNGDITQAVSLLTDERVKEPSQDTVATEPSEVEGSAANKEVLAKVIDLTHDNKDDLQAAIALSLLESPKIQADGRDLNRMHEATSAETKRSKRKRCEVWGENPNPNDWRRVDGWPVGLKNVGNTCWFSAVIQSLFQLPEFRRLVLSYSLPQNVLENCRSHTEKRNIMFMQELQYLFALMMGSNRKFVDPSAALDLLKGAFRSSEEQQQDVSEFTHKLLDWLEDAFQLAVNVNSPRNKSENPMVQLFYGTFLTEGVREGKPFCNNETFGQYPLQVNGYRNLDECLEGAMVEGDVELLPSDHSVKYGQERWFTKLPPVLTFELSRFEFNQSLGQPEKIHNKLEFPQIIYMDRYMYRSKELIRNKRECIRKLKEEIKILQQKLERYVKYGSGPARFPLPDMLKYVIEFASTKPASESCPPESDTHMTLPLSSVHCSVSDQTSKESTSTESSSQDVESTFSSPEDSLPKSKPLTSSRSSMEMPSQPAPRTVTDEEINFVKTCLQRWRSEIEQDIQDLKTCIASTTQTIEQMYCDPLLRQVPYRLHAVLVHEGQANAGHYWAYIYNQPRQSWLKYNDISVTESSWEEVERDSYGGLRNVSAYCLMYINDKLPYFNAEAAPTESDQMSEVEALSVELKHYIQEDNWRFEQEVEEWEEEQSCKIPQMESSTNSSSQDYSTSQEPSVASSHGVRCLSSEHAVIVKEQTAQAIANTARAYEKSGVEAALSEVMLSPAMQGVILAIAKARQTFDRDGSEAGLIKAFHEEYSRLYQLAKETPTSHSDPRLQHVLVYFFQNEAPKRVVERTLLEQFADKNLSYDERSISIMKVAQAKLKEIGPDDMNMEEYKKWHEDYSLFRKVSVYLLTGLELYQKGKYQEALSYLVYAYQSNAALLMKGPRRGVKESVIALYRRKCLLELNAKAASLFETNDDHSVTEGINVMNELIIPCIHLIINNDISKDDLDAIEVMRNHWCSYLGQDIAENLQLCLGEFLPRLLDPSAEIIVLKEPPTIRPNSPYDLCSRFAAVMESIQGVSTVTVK

HGC-27 cells [5] = assay: EdU incorporation assay; format: cell-based, human
HGC-27 cells [6] = assay: Cell cycle assay; format: cell-based, human; settings: HGC-27, 24 h
GES-1 cells = assay: cells; settings: Homo sapiens, GES1, 72 h, read-out: IC50 cell viability GES-1
HGC-27 cells [7] = assay: Colony formation, HGC-27; format: cell-based, human; settings: HGC-27, 0.75, 1.5 and 3.0 μmol/L, 8 days
MGC-803 cells [8] = assay: Colony formation, MGC-803; format: cell-based, human; settings: MGC-803, 0.75, 1.5 and 3.0 μmol/L, 8 days
HGC-27 cells [9] = assay: MTT cell viability assay, HGC-27; settings: Homo sapiens, HGC-27, 72 h, read-out: IC50 cell viability HGC-27
USP7 = USP7 (Homo sapiens, UniProt Q93009); assay: Enzymatic inhibitory activity against USP7; format: biochemical
Sequence of USP7 (Q93009 whole entry, species assumed): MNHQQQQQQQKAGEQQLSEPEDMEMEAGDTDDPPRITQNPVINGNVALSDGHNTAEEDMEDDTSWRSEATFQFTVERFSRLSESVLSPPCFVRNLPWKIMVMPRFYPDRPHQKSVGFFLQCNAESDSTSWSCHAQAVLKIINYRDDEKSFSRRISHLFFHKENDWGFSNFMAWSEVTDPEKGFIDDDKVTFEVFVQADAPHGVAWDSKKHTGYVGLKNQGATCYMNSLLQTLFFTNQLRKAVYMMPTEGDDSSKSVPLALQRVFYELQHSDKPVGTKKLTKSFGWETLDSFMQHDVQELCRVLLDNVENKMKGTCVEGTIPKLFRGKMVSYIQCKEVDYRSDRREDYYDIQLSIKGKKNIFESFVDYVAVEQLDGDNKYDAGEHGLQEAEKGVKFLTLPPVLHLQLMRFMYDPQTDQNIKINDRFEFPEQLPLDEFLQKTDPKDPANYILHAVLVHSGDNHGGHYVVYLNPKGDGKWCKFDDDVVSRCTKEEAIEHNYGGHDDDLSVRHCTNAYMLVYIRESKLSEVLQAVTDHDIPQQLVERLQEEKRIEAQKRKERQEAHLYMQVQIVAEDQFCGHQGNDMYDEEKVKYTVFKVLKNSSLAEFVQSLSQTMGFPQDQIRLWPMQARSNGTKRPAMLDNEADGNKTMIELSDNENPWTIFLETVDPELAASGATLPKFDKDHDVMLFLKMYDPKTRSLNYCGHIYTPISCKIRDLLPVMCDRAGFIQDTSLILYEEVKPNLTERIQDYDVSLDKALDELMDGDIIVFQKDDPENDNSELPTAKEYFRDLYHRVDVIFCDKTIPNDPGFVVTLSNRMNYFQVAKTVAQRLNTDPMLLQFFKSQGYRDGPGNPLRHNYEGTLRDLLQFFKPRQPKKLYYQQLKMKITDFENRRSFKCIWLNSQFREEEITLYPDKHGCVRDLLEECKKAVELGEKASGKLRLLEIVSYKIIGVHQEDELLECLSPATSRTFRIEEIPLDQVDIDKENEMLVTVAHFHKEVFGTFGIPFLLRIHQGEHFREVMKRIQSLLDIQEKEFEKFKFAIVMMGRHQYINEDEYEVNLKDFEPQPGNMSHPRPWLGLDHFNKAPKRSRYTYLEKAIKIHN

USP28 in MGC-803 cells = target: T2, USP28 in MGC-803 cells (Homo sapiens, UniProt Q96RU2); assay: Cellular thermal shift target engagement assay, MGC-803; format: cell-based; settings: MGC-803, 0.75 μmol/L, 3 h, 60 °C
T2 sequence (Q96RU2 1-1077): T1 sequence (Q96RU2 1-1077)

USP28 [10] = target: T3, USP28 (Homo sapiens, UniProt Q96RU2); assay: biochemical; format: biochemical; settings: read-out: Inhibition rate at 12.5 μmol/L (%)
T3 sequence (Q96RU2 1-700): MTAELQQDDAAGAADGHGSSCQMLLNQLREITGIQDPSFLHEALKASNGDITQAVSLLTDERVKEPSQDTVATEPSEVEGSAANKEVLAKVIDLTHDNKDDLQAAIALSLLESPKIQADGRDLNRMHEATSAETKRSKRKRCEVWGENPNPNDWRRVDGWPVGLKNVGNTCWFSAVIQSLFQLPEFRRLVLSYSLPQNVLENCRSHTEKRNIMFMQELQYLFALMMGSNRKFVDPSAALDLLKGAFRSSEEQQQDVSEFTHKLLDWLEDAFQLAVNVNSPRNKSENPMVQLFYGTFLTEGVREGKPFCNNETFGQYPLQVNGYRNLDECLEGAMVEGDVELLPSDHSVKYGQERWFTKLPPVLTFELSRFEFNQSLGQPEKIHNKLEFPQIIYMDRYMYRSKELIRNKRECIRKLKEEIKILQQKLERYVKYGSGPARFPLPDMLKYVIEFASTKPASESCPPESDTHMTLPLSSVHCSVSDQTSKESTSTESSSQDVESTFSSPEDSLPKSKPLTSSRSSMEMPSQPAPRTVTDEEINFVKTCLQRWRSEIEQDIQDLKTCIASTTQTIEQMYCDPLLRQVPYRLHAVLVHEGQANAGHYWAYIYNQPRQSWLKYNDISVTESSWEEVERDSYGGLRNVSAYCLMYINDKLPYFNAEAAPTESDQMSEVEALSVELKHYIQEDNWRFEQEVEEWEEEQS

HGC-27 cells [11] = assay: Wound healing assay, HGC-27; format: cell-based, human; settings: HGC-27, 48 h
MGC-803 cells [12] = assay: Wound healing assay, MGC-803; format: cell-based, human; settings: MGC-803, 48 h
LSD1 = LSD1 (Homo sapiens, UniProt O60341); assay: Enzymatic inhibitory activity against LSD1; format: biochemical
MGC-803 cells [13] = assay: Transwell migration assay, MGC-803; format: cell-based, human; settings: MGC-803, 48 h
USP28 [14] = target: T3, USP28; assay: Bio-layer interferometry; format: binding

IC50 (MKN45 cells): 1.49 ± 0.98 µM
IC50 (MGC-803 cells [3]): 4.95 ± 0.33 µM
USP28 thermal stabilization (CTSA) (USP28 in HGC-27 cells): stabilized
IC50 (USP7): > 100 µM
USP28 thermal stabilization (CTSA) (USP28 in MGC-803 cells): stabilized
inhibition at 12.5 µM (USP28 [10]): 90%
IC50 (LSD1): > 100 µM
Kd (USP28 [14]): 0.04 µM
SMILES: CCCSc1nc(NCCN)c2nnn(Cc3ccc(Cl)cc3)c2n1 [Compound 19, N^1-(3-(4-Chlorobenzyl)-5-(propylthio)-3H-[1,2,3]triazolo[4,5-d]pyrimidin-7-yl)ethane-1,2-diamine]
apoptotic rate (Annexin V-FITC/PI, Q2) (HGC-27 cells [1]; HGC-27, 0.18 μmol/L): 6.5%
apoptotic rate (Annexin V-FITC/PI, Q2) (HGC-27 cells [1]; HGC-27, 0.37 μmol/L): 9.3%
apoptotic rate (Annexin V-FITC/PI, Q2) (HGC-27 cells [1]; HGC-27, 0.75 μmol/L): 10.5%
apoptotic rate (Annexin V-FITC/PI, Q2) (HGC-27 cells [1]; HGC-27, 1.5 μmol/L): 21.2%
cell migration (Transwell) (HGC-27 cells [2]): apparently inhibited cell migration
USP28 expression [4]: decreased in a dose-dependent manner
protein levels of LSD1 and total c-Myc [4]: decreased correspondingly
DNA proliferation (EdU) (HGC-27 cells [5]): suppressed DNA proliferation
percentage of cells in S phase (HGC-27 cells [6]; 0.18 μmol/L): 36.02%
percentage of cells in S phase (HGC-27 cells [6]; 0.37 μmol/L): 38.58%
percentage of cells in S phase (HGC-27 cells [6]; 0.75 μmol/L): 39.27%
percentage of cells in S phase (HGC-27 cells [6]; 1.5 μmol/L): 42.98%
IC50 (GES-1 cells): 9.19 ± 1.15 µM
colony formation (HGC-27 cells [7]): dose-dependently inhibited colony formation
colony formation (MGC-803 cells [8]): dose-dependently inhibited colony formation
IC50 (HGC-27 cells [9]): 0.61 ± 0.45 µM
wound healing (HGC-27 cells [11]): apparently suppressed the wound healing
wound healing (MGC-803 cells [12]): apparently suppressed the wound healing
cell migration (Transwell) (MGC-803 cells [13]): apparently inhibited cell migration
